Among the test systems are M19-MEL; KM-20L2; HOP-18; LXFL 529; SNB-78; DMS-114; DMS-273; XF498; RXF 631.
Common to all, as to test: NCI anticancer screen, dose series, 48 h

Each structure is given as a SMILES string.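 96-well plates; 48 h exposure; 5 concentrations. Endpoints by linear interpolation between flanking doses. Not reached: highest tested concentration assigned. GI50 marks 50% less growth.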 The source made the active and inactive calls. Rule as the data show it: active = GI50 up to about 1.1 µM and inactive = higher.

Regarding `Cc1nn2c3c(nnc2c1C#N)C(=O)NN=C(N)S3`, the GI50 in the experiment on M19-MEL, in the experiment with KM-20L2, in the experiment with HOP-18 and with LXFL 529 was > 100 µM (inactive) each time.
Consider `FC(F)(F)c1nc(-c2ccccc2Cl)[nH]c1C(F)(F)F`, for which the GI50 was 1.06 µM (active) with SNB-78; 0.697 µM (active) with M19-MEL; 0.673 µM (active) in the experiment on DMS-114; 0.619 µM (active) in the experiment with KM-20L2; 0.873 µM (active) with DMS-273; 0.364 µM (active) with HOP-18. Besides, the results for the GI50 with XF498 and in the experiment with LXFL 529 were 0.621 µM (active) and 0.935 µM (active), respectively.
In the case of `O=C1c2ccccc2C(=O)C1C(c1ccc([N+](=O)[O-])cc1)C1C(=O)c2ccccc2C1=O`, the GI50 was 33.4 µM (inactive) in the experiment with SNB-78; > 10 µM (inactive) in the experiment on DMS-114; > 100 µM (inactive) in the experiment on KM-20L2; 99.1 µM (inactive) with DMS-273; > 100 µM (inactive) with HOP-18; 12.1 µM (inactive) in the experiment with RXF 631. Besides, the GI50 in the experiment with XF498 is 55.2 µM (inactive); in the experiment with LXFL 529, 30.8 µM (inactive).
Turning to `O=c1nc(NC(c2ccccc2)(c2ccccc2)c2ccccc2)ccn1CCNCCn1ccc(NC(c2ccccc2)(c2ccccc2)c2ccccc2)nc1=O`, the GI50 in the experiment with M19-MEL was 4.46 µM (inactive); in the experiment with DMS-114, 3.23 µM (inactive); in the experiment with KM-20L2, 10 µM (inactive); in the experiment on DMS-273, 4.16 µM (inactive); in the experiment on HOP-18, 16.3 µM (inactive); in the experiment on XF498, 4.11 µM (inactive). In the experiment on LXFL 529, the GI50 was 5.26 µM (inactive).
Regarding `C1=C(c2ccccc2)CN(c2ccccc2)OC1`, the GI50 in the experiment with SNB-78 was > 100 µM (inactive); in the experiment with M19-MEL it was 47.5 µM (inactive); with KM-20L2, 63.5 µM (inactive); with DMS-273 it was > 100 µM (inactive); in the experiment with HOP-18 it was 2.71 µM (inactive); with XF498, > 100 µM (inactive). Also, the GI50 with LXFL 529 is 64 µM (inactive).
Take `CCOC(=O)CC[C@H](NC(=O)c1nc[nH]c1[N+](=O)[O-])C(=O)OCC`: the GI50 in the experiment with SNB-78, in the experiment with DMS-114, with KM-20L2, in the experiment on DMS-273, in the experiment with HOP-18 and in the experiment with LXFL 529 was > 100 µM (inactive) in each case.
For the compound `CCCCCCCCCCCC(=O)OCC1OC(n2cc(F)c(=O)[nH]c2=O)C(N)C(OC(=O)CCCCCCCCCCC)C1O` (centres undefined), the GI50 in the experiment with SNB-78 was 71.1 µM (inactive); with M19-MEL it was > 100 µM (inactive); with DMS-114, 49.5 µM (inactive); with KM-20L2, > 100 µM (inactive); with DMS-273, 44.3 µM (inactive); in the experiment with LXFL 529 it was 33.9 µM (inactive).
On to `O=C(CCc1nnc(S)[nH]1)Nc1ccccc1Cl`, for which the GI50 in the experiment on SNB-78, in the experiment with M19-MEL, in the experiment on DMS-114, with KM-20L2, in the experiment with DMS-273 and in the experiment with HOP-18 was > 100 µM (inactive) throughout. Also, the GI50 in the experiment on XF498 and in the experiment on LXFL 529 was > 100 µM (inactive) in each case.
Take `N#C/C(c1nc2ccccc2[nH]1)=c1\s/c(=C/c2ccc(Cl)cc2)c(=O)n1-c1ccccc1`: the GI50 with M19-MEL, with DMS-114, in the experiment with KM-20L2, with DMS-273, in the experiment on HOP-18 and with XF498 was > 100 µM (inactive) throughout. Moreover, the GI50 with LXFL 529 was > 100 µM (inactive).
Take `NC(=O)N/N=C(\CCC(=O)N(Cc1ccccc1)Cc1ccccc1)CC(=O)c1ccc(F)cc1`: the GI50 with SNB-78, in the experiment with M19-MEL, in the experiment with DMS-114, in the experiment with KM-20L2, in the experiment on HOP-18 and in the experiment with RXF 631 was > 100 µM (inactive) in each case. The GI50 with LXFL 529 is > 100 µM (inactive).
On to `O=c1[nH]cc(COCCCO)c(=O)[nH]1`, for which the GI50 in the experiment with SNB-78, in the experiment with M19-MEL, in the experiment with KM-20L2, in the experiment with DMS-273, with HOP-18 and in the experiment with XF498 was > 100 µM (inactive) in each case. Moreover, the GI50 in the experiment on LXFL 529 was > 100 µM (inactive).
In the case of `CCOC(=O)/C(Br)=C1\OC(=O)c2ccccc2-c2ccccc21`, the GI50 in the experiment on SNB-78 is 29.6 µM (inactive); in the experiment with M19-MEL it was 51.1 µM (inactive); in the experiment with DMS-114, 23.1 µM (inactive); in the experiment with DMS-273 it was 41.4 µM (inactive); with HOP-18, 91.8 µM (inactive); with RXF 631, 33.3 µM (inactive). Moreover, the GI50 in the experiment on XF498 is 65.8 µM (inactive); with LXFL 529, 29.4 µM (inactive).
With `COc1ccccc1/C=C1\CCC(CN2CCOCC2)C1=O` (centres undefined), the GI50 in the experiment with SNB-78 is 20 µM (inactive); in the experiment on M19-MEL, 6.7 µM (inactive); with DMS-114 it was 16 µM (inactive); with KM-20L2, 16.6 µM (inactive); in the experiment with DMS-273, 13.6 µM (inactive); with HOP-18, 17.9 µM (inactive). Further, the GI50 was 11.9 µM (inactive) with RXF 631, 16.4 µM (inactive) in the experiment with XF498 and 3.28 µM (inactive) in the experiment with LXFL 529.
On to `c1ccc2c3c([nH]c2c1)C1(CCCCC1)c1c([nH]c2ccccc12)C31CCCCC1`, for which the GI50 in the experiment with SNB-78 was 18.8 µM (inactive); with M19-MEL, 46 µM (inactive); in the experiment with DMS-114, 31.3 µM (inactive); with KM-20L2, 36.1 µM (inactive); in the experiment with DMS-273 it was 22.3 µM (inactive); in the experiment on HOP-18, 20.6 µM (inactive). For the same compound, the GI50 with XF498 is > 100 µM (inactive); in the experiment with LXFL 529, 40.8 µM (inactive).
Take `O=[N+]([O-])c1ccc(N2C[N+](c3ccccc3)=NC(c3ccccc3)=N2)cc1`: the GI50 with SNB-78 is > 100 µM (inactive); in the experiment on M19-MEL, 75.3 µM (inactive); in the experiment on DMS-114 it was 22.5 µM (inactive); in the experiment with KM-20L2 it was 31.9 µM (inactive); with DMS-273, 45.1 µM (inactive); with HOP-18, 21.1 µM (inactive). The values for the GI50 in the experiment with XF498 and with LXFL 529 were 21.4 µM (inactive) and 30.2 µM (inactive), respectively.
Regarding `COC(=O)C(C(=O)c1ccccc1)C(C(=O)C(=O)Nc1ccc(OC)cc1OC)C(=O)C(=O)c1ccc(C)cc1` (centres undefined), the GI50 with SNB-78, with M19-MEL, with DMS-114, with KM-20L2, in the experiment with DMS-273 and in the experiment on HOP-18 was > 100 µM (inactive) throughout. Also, the GI50 in the experiment on RXF 631, in the experiment with XF498 and with LXFL 529 was > 100 µM (inactive) in each case.
Take `CCO/C([O-])=C(\C(=O)c1ccc([N+](=O)[O-])cc1)[n+]1c(C)n(C)c2ccccc21`: the GI50 in the experiment on SNB-78, in the experiment with M19-MEL, in the experiment on DMS-114, with KM-20L2, in the experiment with DMS-273 and in the experiment with HOP-18 was > 100 µM (inactive) throughout. The GI50 in the experiment on LXFL 529 is > 100 µM (inactive).
For the compound `CN(C)C(=S)/N=c1\ss/c(=N\c2ccccc2)n1-c1ccccc1`, the GI50 in the experiment with SNB-78 was 20.7 µM (inactive); with M19-MEL, 24.7 µM (inactive); in the experiment on DMS-114 it was 1.44 µM (inactive); with DMS-273, 16.6 µM (inactive); in the experiment on HOP-18, 28.5 µM (inactive); with RXF 631, 29.9 µM (inactive). Besides, in the experiment on LXFL 529, the GI50 is 0.0542 µM (active).
Take `OC1OCC(COc2cc(Cl)c(Cl)cc2Cl)OC1O` (centres undefined): the GI50 with SNB-78 was 22.7 µM (inactive); with M19-MEL, 66.1 µM (inactive); with DMS-114 it was 28.4 µM (inactive); in the experiment with KM-20L2, > 100 µM (inactive); in the experiment on DMS-273, 36.4 µM (inactive); with HOP-18, 25.6 µM (inactive). Besides, the GI50 in the experiment on RXF 631 was 32.7 µM (inactive); with LXFL 529, 46.8 µM (inactive).
Regarding `NNC(=O)CCC(=O)NC1C2CC3CC(C2)CC1C3` (centres undefined), the GI50 with SNB-78, with M19-MEL, with DMS-114, in the experiment with KM-20L2, in the experiment on DMS-273 and in the experiment on LXFL 529 was > 100 µM (inactive) in each case.
Consider `COc1ccc(OCC(=O)O)c2c1CCC(C(C)C)C2=O` (centres undefined), for which the GI50 with SNB-78, with M19-MEL, with DMS-114, with KM-20L2, with DMS-273 and in the experiment with HOP-18 was > 100 µM (inactive) each time. Also, the GI50 in the experiment with RXF 631 and in the experiment on LXFL 529 was > 100 µM (inactive) in each case.
As for `CC(=O)OCC1OC(OC2CC3C(C)(C)C(OC(C)=O)CC[C@]3(C)C3CCC45CC4(CC[C@H]5C(C)CC(O)[C@@H](O)C(C)(C)O)[C@]23C)C(O)C(O)C1O` (some centres undefined), the GI50 in the experiment on M19-MEL was 7.55 µM (inactive); in the experiment on KM-20L2 it was 8.05 µM (inactive); in the experiment on DMS-273, 7.62 µM (inactive); in the experiment with HOP-18 it was 8.61 µM (inactive); in the experiment on XF498 it was 19.8 µM (inactive); in the experiment on LXFL 529, 5.65 µM (inactive).
Turning to `CC1CC[C@]2(C(=O)O)CCC3(C)C(=CCC4[C@@]5(C)CC[C@H](OS(=O)(=O)c6ccccc6)C(C)(C)C5CC[C@]43C)[C@@H]2[C@H]1C` (some centres undefined), the GI50 was > 100 µM (inactive) in the experiment on SNB-78; > 100 µM (inactive) in the experiment with M19-MEL; 39.2 µM (inactive) in the experiment with DMS-114; > 100 µM (inactive) with DMS-273; 37.9 µM (inactive) with HOP-18; > 100 µM (inactive) with RXF 631. Moreover, the GI50 in the experiment with XF498 is 36.4 µM (inactive); in the experiment with LXFL 529 it was 69.8 µM (inactive).
On to `O=c1c2cc(Cl)ccc2n2nnc3ccc(NCCNCCO)c1c32`, for which the GI50 with SNB-78 was 2.35 µM (inactive); with M19-MEL, 1.55 µM (inactive); in the experiment on DMS-114, 1.49 µM (inactive); in the experiment with KM-20L2, 0.962 µM (active); with DMS-273, 0.641 µM (active); in the experiment with RXF 631, 1.07 µM (active). Also, the GI50 in the experiment with LXFL 529 was 1.09 µM (active).

Values taken from ChEMBL document CHEMBL1201862, “PubChem BioAssay data set” (2004).
